Results on 5 molecules are retold here after patent US6071710A, “Antikinin compounds and uses thereof” (MUSC Foundation for Research Development, priority 1997, dated 2000).

“Also recorded” adds a separate entry of the source. Where no end group is shown, it is not given here.

One data set has as its target T1, kinin B2 receptors (Rattus norvegicus, UniProt P25023).
T1 construct: endogenous in cells; host or cells: primary rat aortic vascular smooth muscle cells (male Sprague-Dawley), passage 2-4
T1 sequence (P25023 1-396): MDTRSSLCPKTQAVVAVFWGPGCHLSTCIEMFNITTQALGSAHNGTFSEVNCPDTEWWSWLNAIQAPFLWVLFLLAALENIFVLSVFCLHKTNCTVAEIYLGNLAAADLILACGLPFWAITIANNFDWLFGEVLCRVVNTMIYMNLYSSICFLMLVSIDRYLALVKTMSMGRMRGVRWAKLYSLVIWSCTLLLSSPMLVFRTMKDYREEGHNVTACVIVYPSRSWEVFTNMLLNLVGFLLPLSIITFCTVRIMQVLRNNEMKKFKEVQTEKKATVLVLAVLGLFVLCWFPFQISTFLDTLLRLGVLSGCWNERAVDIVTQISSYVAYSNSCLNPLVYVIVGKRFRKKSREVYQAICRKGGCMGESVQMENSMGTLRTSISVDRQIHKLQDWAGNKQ
Kind of data set: [3H]bradykinin binding assay in VSMC. The following applies: rat aortic smooth muscle cells. The protocol: VSMC grown in 6-well plates were washed with and allowed to equilibrate with 1 ml of binding buffer (25 mM TES, 1 mM phenanthroline, 15 μM captopril, 0.1% BSA, pH 7.0). Saturation binding experiments were performed by incubating cells with [^-3 H] bradykinin (60,000 cpm/well) and varying the concentration of unlabeled bradykinin (5×10^-11 -1×10^-6 M) in binding buffer for 2 h at 4° C. Cells were washed 3 times with 2 ml of ice-cold binding buffer and solubilized for 10 min in 1% SDS, 0.1 M NaOH, 0.1 M Na2 CO3 solution and counted for radioactivity. Data were analyzed using the LIGAND program to determine the affinity constants and the receptor number.

The subject of data set [1] is spontaneously hypertensive rats. Kind of data set: Mean systemic arterial blood pressure after brain injection of BK fragments. Type of data set: in vivo, rat. The following applies: hypertensive anesthetized rats, preliminary for BK1-7, BK2-7. The protocol:
Experiments were performed on male spontaneously hypertensive rats weighing 250-350 g. Anesthesia and surgical procedures are described (15-17). Following the surgical procedures, animals were allowed to stabilize for 30 minutes. Injections were then made unilaterally into the rostral ventral lateral medulla oblongata. In any given experiment, not more than four doses of the BK fragments were given. Successive injections were alternated between sides after an intervening period of 20 minutes. Mean arterial pressure was measured from a femoral arterial line with a transducer (Statham Laboratories, Inc. Hato Rey, Puerto Rico) and recorded using a polygraph (Grass Instrument Co., Quincy, Mass.). Values shown are the mean changes ± sem.

The conditions of data set [2]: published work (11); cited from earlier work.
The conditions of data set [3]: cited from earlier work.
Data set [4] relates to endotoxin (LPS)-treated anesthetized rats. Put plainly: Endotoxin (LPS) shock in anesthetized rats. Type of data set: in vivo, rat. Conditions: 1 μg/kg IV followed by 143 ng/kg/hr, one hour prior to LPS (12 mg/kg IV); vs vehicle/LPS. The protocol:
Male Sprague-Dawley rats (220-480 g) were anesthetized with inactin (120 mg/kg, IP). The trachea was cannulated and the animal was allowed to breath 100% O2. Polyvinyl cannulas (Norton Plastics, Akron, Ohio) were inserted into the jugular vein and the femoral artery for the purposes of infusion of saline and agents and for monitoring of blood pressure, respectively, as described for FIGS. 2 and 3. Heart rate was monitored by tachograph and body temperature was maintained at 37° C. After a 2 hour period of equilibration with saline infusion (0.25 ml/hr), peptides (1 μg/kg followed by 143 ng/kg/hr) or saline were administered, followed one hour later by LPS (12 mg/kg). Time of death was taken as time after administration of LPS when there was no longer a detectable ECG. Values shown are the mean ± sem from the indicated number of studies and were compared using either t-test (FIG. 12A) or ANOVA with Fisher's post-hoc t-test (FIG. 12B).

As to `NC(N)=NCCC[C@@H](N)C(=O)N[C@@H](CCCN=C(N)N)C(=O)N1CCC[C@H]1C(=O)N1C[C@H](O)C[C@H]1C(=O)NCC(=O)N[C@@H](Cc1cccs1)C(=O)N[C@@H](CO)C(=O)N1Cc2ccccc2C[C@@H]1C(=O)N1[C@H](C(=O)N[C@@H](CCCN=C(N)N)C(=O)O)C[C@@H]2CCCC[C@@H]21` [HOE140], the “displacement of specific binding of bradykinin to kinin B2 receptors” value on kinin B2 receptors is reported as “specifically displaced”.

“BK2-7: bradykinin fragment PPGFSP (Bradykinin; UniProt P01042 382-387, looked up, fragment)”: the “systemic mean arterial pressure (MAP) response” value in data set [1] is recorded as “affect systemic blood pressure”.

As for RPPGF [RPPGF, Arg-Pro-Pro-Gly-Phe], the “stability in human plasma” value in data set [2] is “highly stable in human plasma”.

For the molecule RPPGFSPFR [bradykinin], the plasma half-life in data set [3] is listed as ~ 15 secs. Moreover, the survival time entry in data set [4] was “did not prolong life; also recorded: does not provide protection”.

With “des-arg9-bradykinin (RPPGFSPF; Bradykinin; UniProt P01042 381-388, looked up, fragment)”, the “displacement of specific binding of bradykinin to kinin B2 receptors” value in the data set with kinin B2 receptors is listed as “not displaced”.
